According to US20050112573A1, “Method of detecting toxic substance” (priority 2001, published 2005):

System: yeast genes (level of expressed mRNA)
Test: DNA chip analysis of expressed mRNA of yeast genes after 2 h culture with a toxic chemical substance
Assay type: cell-based, Saccharomyces cerevisiae S288C
Settings: for The level of expressed mRNA in the presence of chemical substance/ (ratio to absence of chemical substance): stress protein genes, DNA chip; for The level of expressed mRNA in the presence of chemical substance/ in its absence, gene YPR184W: yeast gene YPR184W
How it was run: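 S. cerevisiae S288C in YPD at 25 °C was exposed at log phase for 2 h to a growth-inhibiting, non-lethal concentration of the chemical. Poly(A) mRNA was reverse-transcribed with Cy3- or Cy5-dUTP and hybridized to a whole-genome yeast DNA chip (65 °C, >12 h). Values are fluorescence ratios versus untreated cells.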

Structure (SMILES): CCCCC[C@H](O)CC(=O)CCc1ccc(O)c(OC)c1 [(13), gingerol]
- The level of expressed mRNA in the presence of chemical substance/The level of expressed mRNA in the absence of chemical substance (yeast gene YNL006W): 2.3
- The level of expressed mRNA in the presence of chemical substance/The level of expressed mRNA in the absence of chemical substance (yeast gene YNL007C): 2.1
- The level of expressed mRNA in the presence of chemical substance/ (in its absence), gene YNL025C (yeast gene YNL025C, ratio of DNA chip fluorescence intensity to that without chemical substance): 1.3
- The level of expressed mRNA in the presence of chemical substance/ (ratio to absence of chemical substance) (yeast gene YNL064C): 1.1
- The level of expressed mRNA in the presence of chemical substance/ (ratio to absence), gene YNL073W (yeast gene YNL073W, mitochondria-located protein genes, 2 h culture with chemical): 1.2
- The level of expressed mRNA in the presence of chemical substance/The level of expressed mRNA in the absence of chemical substance (yeast gene YNL093W): 2.2
- The level of expressed mRNA in the presence of chemical substance/ (in its absence), gene YNL192W (yeast gene YNL192W, ratio of DNA chip fluorescence intensity to that without chemical substance): 2.7
- The level of expressed mRNA in the presence of chemical substance/The level of expressed mRNA in the absence of chemical substance (yeast gene YNL333W): 2.2
- The level of expressed mRNA in the presence of chemical substance/The level of expressed mRNA in the absence of chemical substance (yeast gene YNR010W): 2.8
- The level of expressed mRNA in the presence of chemical substance/The level of expressed mRNA in the absence of chemical substance (yeast gene YNR069C): 3.4
- The level of expressed mRNA in the presence of chemical substance/ (in its absence), gene YNR072W (yeast gene YNR072W, ratio of DNA chip fluorescence intensity to that without chemical substance): 1.5
- The level of expressed mRNA in the presence of chemical substance/ (ratio to absence of chemical substance) (yeast gene YNR076W): 0.9
- The level of expressed mRNA in the presence of chemical substance/The level of expressed mRNA in the absence of chemical substance (yeast gene YOL013C): 1.8
- The level of expressed mRNA in the presence of chemical substance/ (ratio to absence), gene YOL096C (yeast gene YOL096C, mitochondria-located protein genes, 2 h culture with chemical): 1.4
- The level of expressed mRNA in the presence of chemical substance/ (in its absence), gene YOL096C (yeast gene YOL096C, ratio of DNA chip fluorescence intensity to that without chemical substance): 1.4
- The level of expressed mRNA in the presence of chemical substance/ (in its absence), gene YOL108C (yeast gene YOL108C, ratio of DNA chip fluorescence intensity to that without chemical substance): 1.3
- The level of expressed mRNA in the presence of chemical substance/ (in its absence), gene YOL116W (yeast gene YOL116W, ratio of DNA chip fluorescence intensity to that without chemical substance): 0.8
- The level of expressed mRNA in the presence of chemical substance/ (ratio to absence of chemical substance) (yeast gene YOL161C): 1.2
- The level of expressed mRNA in the presence of chemical substance/The level of expressed mRNA in the absence of chemical substance (yeast gene YOL164W): 3.4
- The level of expressed mRNA in the presence of chemical substance/ (ratio to absence of chemical substance) (yeast gene YOR008C): 0.9
- The level of expressed mRNA in the presence of chemical substance/ (ratio to absence of chemical substance) (yeast gene YOR009W): 0.4
- The level of expressed mRNA in the presence of chemical substance/ (ratio to absence of chemical substance) (yeast gene YOR010C): 0.5
- The level of expressed mRNA in the presence of chemical substance/The level of expressed mRNA in the absence of chemical substance (yeast gene YOR036W): 2.1
- The level of expressed mRNA in the presence of chemical substance/ (in its absence), gene YOR103C (yeast gene YOR103C, ratio of DNA chip fluorescence intensity to that without chemical substance): 0.8
- The level of expressed mRNA in the presence of chemical substance/The level of expressed mRNA in the absence of chemical substance (yeast gene YOR117W): 2.3
- The level of expressed mRNA in the presence of chemical substance/The level of expressed mRNA in the absence of chemical substance (yeast gene YOR124C): 2.1
- The level of expressed mRNA in the presence of chemical substance/The level of expressed mRNA in the absence of chemical substance (yeast gene YOR132W): 2.5
- The level of expressed mRNA in the presence of chemical substance/The level of expressed mRNA in the absence of chemical substance (yeast gene YOR157C): 2.4
- The level of expressed mRNA in the presence of chemical substance/ (in its absence), gene YOR180C (yeast gene YOR180C, ratio of DNA chip fluorescence intensity to that without chemical substance): 0.9
- The level of expressed mRNA in the presence of chemical substance/The level of expressed mRNA in the absence of chemical substance (yeast gene YOR181W): 1.2
- The level of expressed mRNA in the presence of chemical substance/The level of expressed mRNA in the absence of chemical substance (yeast gene YOR185C): 2.2
- The level of expressed mRNA in the presence of chemical substance/The level of expressed mRNA in the absence of chemical substance (yeast gene YOR198C): 1.8
- The level of expressed mRNA in the presence of chemical substance/ (in its absence), gene YOR251C (yeast gene YOR251C, ratio of DNA chip fluorescence intensity to that without chemical substance): 1.0
- The level of expressed mRNA in the presence of chemical substance/The level of expressed mRNA in the absence of chemical substance (yeast gene YOR259C): 1.8
- The level of expressed mRNA in the presence of chemical substance/The level of expressed mRNA in the absence of chemical substance (yeast gene YOR261C): 2.5
- The level of expressed mRNA in the presence of chemical substance/The level of expressed mRNA in the absence of chemical substance (yeast gene YOR288C): 2.4
- The level of expressed mRNA in the presence of chemical substance/ (ratio to absence), gene YOR316C (yeast gene YOR316C, mitochondria-located protein genes, 2 h culture with chemical): 1.6
- The level of expressed mRNA in the presence of chemical substance/ (in its absence), gene YOR348C (yeast gene YOR348C, ratio of DNA chip fluorescence intensity to that without chemical substance): 1.1
- The level of expressed mRNA in the presence of chemical substance/The level of expressed mRNA in the absence of chemical substance (yeast gene YOR355W): 1.1
- The level of expressed mRNA in the presence of chemical substance/ (in its absence), gene YOR363C (yeast gene YOR363C, ratio of DNA chip fluorescence intensity to that without chemical substance): 1.3
- The level of expressed mRNA in the presence of chemical substance/The level of expressed mRNA in the absence of chemical substance (yeast gene YOR383C): 1.2
- The level of expressed mRNA in the presence of chemical substance/ (ratio to absence), gene YPL040C (yeast gene YPL040C, mitochondria-located protein genes, 2 h culture with chemical): 1.0
- The level of expressed mRNA in the presence of chemical substance/ (ratio to absence of chemical substance) (yeast gene YPL059W): 0.7
- The level of expressed mRNA in the presence of chemical substance/The level of expressed mRNA in the absence of chemical substance (yeast gene YPL089C): 1.3
- The level of expressed mRNA in the presence of chemical substance/The level of expressed mRNA in the absence of chemical substance (yeast gene YPL109C): 1.8
- The level of expressed mRNA in the presence of chemical substance/ (ratio to absence), gene YPL134C (yeast gene YPL134C, mitochondria-located protein genes, 2 h culture with chemical): 1.0
- The level of expressed mRNA in the presence of chemical substance/ (ratio to absence of chemical substance) (yeast gene YPL140C): 0.9
- The level of expressed mRNA in the presence of chemical substance/ (in its absence), gene YPL148C (yeast gene YPL148C, ratio of DNA chip fluorescence intensity to that without chemical substance): 0.6
- The level of expressed mRNA in the presence of chemical substance/The level of expressed mRNA in the absence of chemical substance (yeast gene YPL149W): 2.3
- The level of expressed mRNA in the presence of chemical substance/The level of expressed mRNA in the absence of chemical substance (yeast gene YPL154C): 3.1
- The level of expressed mRNA in the presence of chemical substance/ (ratio to absence of chemical substance) (yeast gene YPL194W): 1.4
- The level of expressed mRNA in the presence of chemical substance/ (ratio to absence of chemical substance) (yeast gene YPR005C): 0.7
- The level of expressed mRNA in the presence of chemical substance/The level of expressed mRNA in the absence of chemical substance (yeast gene YPR103W): 2.8
- The level of expressed mRNA in the presence of chemical substance/The level of expressed mRNA in the absence of chemical substance (yeast gene YPR108W): 2.6
- The level of expressed mRNA in the presence of chemical substance/ (in its absence), gene YPR165W (yeast gene YPR165W, ratio of DNA chip fluorescence intensity to that without chemical substance): 1.0
- The level of expressed mRNA in the presence of chemical substance/ in its absence, gene YPR184W (energy system protein genes, 2 h culture with the chemical, ratio to control without chemical): 2.5
- The level of expressed mRNA in the presence of chemical substance/ in its absence, gene YPR184W (ratio of DNA chip fluorescence intensity to that without chemical substance): 2.5
